Values quoted from earlier work, collected in patent US11696883B2, “Compositions for reducing hair loss and/or increasing hair regrowth” (Triple Hair Inc., priority 2014, dated 2023).
Read-outs that look alike come from different tables or passages of the source.

Columns and labels:
[1] = latanoprost in ophthalmology use
hair loss = details: topical
[2] = test system: prostaglandin endoperoxide synthase-1 (PGHS-1); details: Michelet et al. 1997

| SMILES | solubility (in 0.1N HCl and 0.1N NaOH) | solubility (in chloroform, DMSO, ethanol, methanol, n-propanol) | solubility (in propylene glycol, polyethylene glycol 400) | solubility (in water) | solubility (in acetone, ethanol, ethyl acetate, isopropanol, methanol and octanol) | solubility (in acetonitrile) | other adverse effects [1] | side effects [1] | effective in promoting regrowth of the hair (hair loss) | activation of purified PGHS-1 [2] |
| --- | --- | --- | --- | --- | --- | --- | --- | --- | --- | --- |
| CC(C)(C)NC(=O)[C@H]1CC[C@H]2[C@@H]3CC[C@H]4NC(=O)C=C[C@]4(C)[C@H]3CC[C@]12C [Finasteride, (5α,17β)-N-(1,1-Dimethylethyl)-3-oxo-4-azaandrost-1-ene-17-carboxamide] | very slightly soluble | freely soluble | sparingly soluble | not soluble | – | – | – | – | – | – |
| CC(C)OC(=O)CCC/C=C\C[C@@H]1[C@@H](CC[C@@H](O)CCc2ccccc2)[C@H](O)C[C@@H]1O [Latanoprost] | – | – | – | practically insoluble | freely soluble | very soluble | erythema, folliculitis, sensation of burning and erysipelas | augmentation of periocular hirsuteness | – | – |
| Nc1cc(N2CCCCC2)nc(N)[n+]1[O-] [Minoxidil, 6-(1-pipedidinyl)-2,4-pyrimidinediamine 3-oxide] | – | – | – | – | – | – | – | – | less than 40% | potent activator |
